Data as given in ChEMBL document CHEMBL5380858 (J Med Chem, 2023).

What was measured:
[1] = Selectivity index, ratio of CC50 for cytotoxicity against human calu-3 cells to EC50 for antiviral activity against SARS CoV-2 USA-WA1/2020 infected in human Calu-3 cells; assay type: toxicity, cell-based; settings: read-out: Ratio CC50/EC50
[2] = Selectivity index, ratio of CC50 for cytotoxicity against human Huh7.5 cells to EC50 for antiviral activity against SARS CoV-2 USA-WA1/2020 infected in human Huh7.5 cells; assay type: toxicity, cell-based; settings: read-out: Ratio CC50/EC50
[3] = Selectivity index, ratio of CC50 for african green monkey Vero/TMPRSS2 cells to EC50 for antiviral activity against SARS CoV-2 USA-WA1/2020 infected in Vero/TMPRSS2 cells; assay type: toxicity, cell-based; settings: read-out: Ratio CC50/EC50
[4] = Selectivity index, ratio of CC50 for cytotoxicity against human iPSC-lung cells to EC50 for antiviral activity against SARS CoV-2 USA-WA1/2020 infected in human iPSC-lung cells; assay type: toxicity, cell-based; settings: read-out: Ratio CC50/EC50
[5] = system: SARS-CoV-2; assay: Antiviral activity against SARS CoV-2 USA-WA1/2020 infected in human Calu-3 cells pretreated for 30 to 60 mins followed by viral infection and measured after 40 to 44 hrs by sytox green staining based analysis; assay type: functional, organism-based, Severe acute respiratory syndrome coronavirus 2
[6] = Cytotoxicity against human Calu-3 cells assessed as reduction in cell viability incubated for 40 to 44 hrs by celltiter-glo assay; assay type: toxicity, cell-based; settings: time 40-44 hrs
[7] = system: SARS-CoV-2; assay: Antiviral activity against SARS CoV-2 USA-WA1/2020 infected in human Huh7.5 cells pretreated for 30 to 60 mins followed by viral infection and measured after 48 hrs post infection by sytox green staining based immunofluorescence analysis; assay type: functional, organism-based; settings: Severe acute respiratory syndrome coronavirus 2, USA-WA1/2020, Huh7.5; for EC90: time 2910-2940 min
[8] = Cytotoxicity against human Huh7.5 cells assessed as reduction in cell viability incubated for 48 hrs by celltiter glo assay; assay type: toxicity, cell-based, Huh-7.5
[9] = system: SARS-CoV-2; assay: Antiviral activity against SARS CoV-2 USA-WA1/2020 infected in Vero/TMPRSS2 cells pretreated for 30 to 60 mins followed by viral infection and measured after 38 hrs post infection by sytox green staining based immunofluorescence analysis; assay type: functional, organism-based; settings: Severe acute respiratory syndrome coronavirus 2, USA-WA1/2020, Vero/TMPRSS2; for EC90: time 2310-2340 min
[10] = Cytotoxicity against african green monkey Vero/TMPRSS2 cells assessed as reduction in cell viability incubated for 38 hrs by celltiter glo assay; assay type: toxicity, cell-based; settings: chlorocebus aethiops
[11] = system: SARS-CoV-2; assay: Antiviral activity against SARS CoV-2 USA-WA1/2020 infected in human iPSC-lung cells pretreated for 30 to 60 mins followed by viral infection and measured after 24 hrs post infection by sytox green staining based analysis; assay type: functional, organism-based; settings: Severe acute respiratory syndrome coronavirus 2, USA-WA1/2020, iPSC-Lung cell; for EC90: time 1470-1500 min
[12] = Cytotoxicity against human iPSC-lung cells assessed as reduction in number of nuclei incubated for 24 hrs by celltiter glo assay; assay type: toxicity, cell-based, iPSC-Lung cell
[13] = system: SARS-CoV-2; assay: Potency index, ratio of remdesivir EC50 to test compound EC50 for antiviral activity against SARS CoV-2 USA-WA1/2020 infected in human Calu-3 cells pretreated for 30 to 60 mins followed by viral infection and measured after 40 to 44 hrs by sytox green staining based analysis; assay type: functional, Severe acute respiratory syndrome coronavirus 2; settings: time 2430-2700 min
[14] = system: SARS-CoV-2; assay: Antiviral activity against SARS CoV-2 USA-WA1/2020 infected in human Calu-3 cells assessed as reduction in viral RNA pretreated for 30 mins followed by viral infection and measured after 48 hrs by qRT-PCR analysis; assay type: functional, organism-based; settings: Severe acute respiratory syndrome coronavirus 2, USA-WA1/2020, Calu-3
[15] = Cytotoxicity against human Calu-3 cells assessed as reduction in cell viability incubated for 48.5 hrs by CellTiter-Glo assay; assay type: toxicity, cell-based
[16] = Severe acute respiratory syndrome coronavirus 2, USA-WA1/2020, Calu-3
[17] = Severe acute respiratory syndrome coronavirus 2, USA-WA1/2020, Calu-3, time 2430-2700 min

| SMILES | selectivity ratio [1] | selectivity ratio [2] | selectivity ratio [3] | other results |
| --- | --- | --- | --- | --- |
| CCCCCCCCCCCCCCCCCCOC[C@H](COP(=O)(O)OC[C@H]1O[C@@](C#N)(c2ccc3c(N)ncnn23)[C@H](O)[C@@H]1O)OCc1ccc(OC)c(F)c1 | 656 | 1170 | > 561 | selectivity ratio [4]: > 119 |
| CCCCCCCCCCCCCCCCCCOC[C@H](COP(=O)(O)OC[C@H]1O[C@@](C#N)(c2ccc3c(N)ncnn23)[C@H](O)[C@@H]1O)OCc1ccc(C(F)(F)F)cc1 | 509 |  |  |  |
| CCCCCCCCCCCCCCCCCCOC[C@H](COP(=O)(O)OC[C@H]1O[C@@](C#N)(c2ccc3c(N)ncnn23)[C@H](O)[C@@H]1O)OCc1ccc(C#N)cc1 | 1400 | 1970 |  |  |
| CCCCCCCCCCCCCCCCOC[C@H](COP(=O)(O)OC[C@H]1O[C@@](C#N)(c2ccc3c(N)ncnn23)[C@H](O)[C@@H]1O)OCc1ccccc1 | 934 | > 763 | > 248 |  |
| CCCCCCCCCCCCCCCCOC[C@H](COP(=O)(O)OC[C@H]1O[C@@](C#N)(c2ccc3c(N)ncnn23)[C@H](O)[C@@H]1O)OCc1ccc(OC)c(F)c1 | 1480 | 1180 | > 246 | selectivity ratio [4]: > 153 |
| CCCCCCCC/C=C\CCCCCCCCOC[C@H](COP(=O)(O)OC[C@H]1O[C@@](C#N)(c2ccc3c(N)ncnn23)[C@H](O)[C@@H]1O)OCc1ccc(OC)c(F)c1 | 839 | > 1850 | > 333 | EC50 [5, 16]: 0.07 µM; EC90 [5, 17]: 0.149 µM; CC50 [6]: 58.7 µM; EC50 [7]: 0.054 µM; EC90 [7]: 0.095 µM; CC50 at 48 h [8]: > 100 µM; EC50 [9]: 0.3 µM; EC90 [9]: 0.554 µM; CC50 at 38 h [10]: > 100 µM; EC50 [11]: 0.082 µM; EC90 [11]: 0.175 µM; CC50 at 24 h [12]: > 20 µM; selectivity ratio [4]: > 243; Ratio EC50 [13]: 3.3 |
| CCCCCCCCCCCCCCCCCCOC[C@H](COP(=O)(O)OC[C@H]1O[C@@](C#N)(c2ccc3c(N)ncnn23)[C@H](O)[C@@H]1O)OCCC1CCCCC1 | 685 | 758 |  |  |
| CCCCCCCCCCCCCCCCCCOC[C@H](COP(=O)(O)OC[C@H]1O[C@@](C#N)(c2ccc3c(N)ncnn23)[C@H](O)[C@@H]1O)OCc1ccccc1C#N | 909 | > 980 | > 337 | EC50 [9]: 0.296 µM; CC50 at 38 h [10]: > 1010 µM |
| CCCCCCCCCCCCCCCCCCOC[C@H](COP(=O)(O)OC[C@H]1O[C@@](C#N)(c2ccc3c(N)ncnn23)[C@H](O)[C@@H]1O)OCc1cccc(C#N)c1 | 1810 | 2070 |  |  |
| CCCCCCCC/C=C\CCCCCCCCOC[C@H](COP(=O)(O)OC[C@H]1O[C@@](C#N)(c2ccc3c(N)ncnn23)[C@H](O)[C@@H]1O)OCc1ccccc1 | 410 | > 917 | > 341 | EC50 [5, 16]: 0.193 µM; EC90 [5, 17]: 0.324 µM; CC50 [6]: 79.2 µM; EC50 [7]: 0.109 µM; EC90 [7]: 0.224 µM; CC50 at 48 h [8]: > 100 µM; EC50 [9]: 0.293 µM; EC90 [9]: 0.57 µM; CC50 at 38 h [10]: > 100 µM; EC50 [11]: 0.267 µM; EC90 [11]: 0.555 µM; CC50 at 24 h [12]: > 20 µM; selectivity ratio [4]: > 74 |
| CCCCCCCCCCCCCCCCCCOC[C@H](COP(=O)(O)OC[C@H]1O[C@@](C#N)(c2ccc3c(N)ncnn23)[C@H](O)[C@@H]1O)OCc1cccc(C(F)(F)F)c1 | 418 |  |  |  |
| CCCCCCCCCCCCCCCCCCOC[C@H](COP(=O)(O)OC[C@H]1O[C@@](C#N)(c2ccc3c(N)ncnn23)[C@H](O)[C@@H]1O)OCCCCCCCC | > 255 | > 177 | > 129 | EC50 ([5]; calu-3): 0.16 µM; EC90 ([5]; time 2430-2700 min): 0.625 µM |
| CCCCCCCCCCCCCCOC[C@H](COP(=O)(O)OC[C@H]1O[C@@](C#N)(c2ccc3c(N)ncnn23)[C@H](O)[C@@H]1O)OCc1ccccc1 | > 469 | > 636 | > 110 |  |
| CCCCCCCCCCCCCCCCCCOC[C@H](COP(=O)(O)OC[C@H]1O[C@@](C#N)(c2ccc3c(N)ncnn23)[C@H](O)[C@@H]1O)OCc1cccc(F)c1 | 422 | 392 | > 369 |  |
| N#C[C@@]1(c2ccc3c(N)ncnn23)O[C@H](CO)[C@@H](O)[C@H]1O [GS-441524] | > 666 |  |  | EC50 [14]: 0.15 µM; EC90 ([14]; time 48.5 hrs): 0.18 µM; CC50 at 48.5 h [15]: > 100 µM |
